Test results taken from BigSolDB 2.1.

Cn1cnc2c1c(=O)[nH]c(=O)n2C
Details	solubility (mole fraction)
in acetone, 288.13 K	1.47e-05
in acetone, 297.99 K	2.23e-05
in acetone, 308.08 K	2.99e-05
in acetone, 318.07 K	4.57e-05
in acetone, 328.17 K	6.77e-05
in ethanol, 288.15 K	1.38e-05
in ethanol, 298.2 K	2.26e-05
in ethanol, 308.19 K	3.85e-05
in ethanol, 318.16 K	6.31e-05
in ethanol, 328.16 K	0.000106
in ethyl acetate, 288.13 K	1.04e-05
in ethyl acetate, 297.99 K	1.59e-05
in ethyl acetate, 308.08 K	2.28e-05
in ethyl acetate, 318.07 K	3.33e-05
in ethyl acetate, 328.17 K	4.94e-05
in methanol, 288.07 K	2.82e-05
in methanol, 298.1 K	4.34e-05
in methanol, 308.93 K	7e-05
in methanol, 318.62 K	0.00011
in methanol, 328.15 K	0.000163
in n-propanol, 288.15 K	1.18e-05
in n-propanol, 298.2 K	2.06e-05
in n-propanol, 308.19 K	3.71e-05
in n-propanol, 318.16 K	6.37e-05
in n-propanol, 328.16 K	0.000109
in water, 288.07 K	3.09e-05
in water, 298.1 K	4.73e-05
in water, 308.93 K	6.93e-05
in water, 318.62 K	0.0001
in water, 328.15 K	0.000145

Cn1c(=O)c2[nH]cnc2n(C)c1=O
Details	solubility (mole fraction)
in acetone, 288.02 K	0.000667
in acetone, 298.15 K	0.00093
in acetone, 308.15 K	0.00124
in acetone, 318.15 K	0.00147
in acetone, 328.1 K	0.0018
in ethanol, 288.01 K	0.0008
in ethanol, 297.95 K	0.00116
in ethanol, 308.01 K	0.00173
in ethanol, 318.11 K	0.00254
in ethanol, 328.09 K	0.00319
in ethyl acetate, 288.02 K	0.000502
in ethyl acetate, 298.15 K	0.000673
in ethyl acetate, 308.15 K	0.000901
in ethyl acetate, 318.15 K	0.0011
in ethyl acetate, 328.1 K	0.00141
in methanol, 288.06 K	0.00077
in methanol, 298.16 K	0.00137
in methanol, 308.16 K	0.00217
in methanol, 318.13 K	0.00298
in methanol, 328.19 K	0.00394
in n-propanol, 288.01 K	0.000912
in n-propanol, 297.95 K	0.00136
in n-propanol, 308.01 K	0.00204
in n-propanol, 318.11 K	0.00313
in n-propanol, 328.09 K	0.00423
in water, 288.06 K	0.000325
in water, 298.16 K	0.00063
in water, 308.16 K	0.000991
in water, 318.13 K	0.00141
in water, 328.19 K	0.00216
